Experimental data reported in patent publication US12552825B2 (Zikani Therapeutics, Inc., priority 2019, dated 2026).
≈ marks a conversion by molar mass, not a printed value.

Assays:
Assay type in all cases: cell-based
S. aureus MP-12 = assay: microbe, parasite or virus in culture; conditions: Staphylococcus aureus, MP12, read-out: MIC S. aureus MP-12
P. aeruginosa MP-3 = assay: MIC determination by CLSI broth dilution, P. aeruginosa MP-3; conditions: Pseudomonas aeruginosa, MP3, strain MP-3
K. pneumoniae MP-546 = assay: MIC determination by CLSI broth dilution, K. pneumoniae MP-546; conditions: Klebsiella pneumoniae, MP546, CLSI broth dilution; strain MP-546
A. baumannii MP-15 = assay: MIC determination by CLSI broth dilution, A. baumannii MP-15; conditions: Acinetobacter baumannii, MP15, strain MP-15, read-out: MIC A. baumanii MP-15
E. coli MP-4 = assay: MIC determination by CLSI broth dilution, E. coli MP-4; conditions: Escherichia coli, MP4, CLSI broth dilution; strain MP-4
K. pneumoniae MP-648 = assay: MIC determination by CLSI broth dilution, K. pneumoniae MP-648; conditions: Klebsiella pneumoniae, MP648, CLSI broth dilution; strain MP-648

With `CO[C@]1(C)C[C@@H](C)CN(C)[C@@H](CCCN2CCCC2)COC(=O)C(C)(C)C(=O)[C@H](C)[C@H]1O[C@@H]1O[C@H](C)C[C@H](N(C)C)[C@H]1O` [Compound 107, (3S,6R,8R,9R,10R)-9-(((2S,3R,4S,6R)-4-(dimethylamino)-3-hydroxy-6-methyltetrahydro-2H-pyran-2-yl)oxy)-8-methoxy-4,6,8,10,12,12-hexamethyl-3-(3-(pyrrolidin-1-yl)propyl)-1-oxa-4-azacyclotridecane-11,13-dione] the MIC (S. aureus MP-12) was 4 to 32 µg/mL (≈ 6.54 to 52.3 µM), the MIC (P. aeruginosa MP-3) was > 32 µg/mL and the MIC (K. pneumoniae MP-546) was < 4 µg/mL. For the same molecule, the MIC (A. baumannii MP-15) was > 32 µg/mL, the MIC (E. coli MP-4) was < 4 µg/mL and the MIC (K. pneumoniae MP-648) was < 4 µg/mL.

In the case of `CO[C@]1(C)C[C@@H](C)CN(C)[C@@H](CCCN2CC[C@@H](F)C2)COC(=O)C(C)(C)C(=O)[C@H](C)[C@H]1O[C@@H]1O[C@H](C)C[C@H](N(C)C)[C@H]1O` [Compound 108, (3S,6R,8R,9R,10R)-9-(((2S,3R,4S,6R)-4-(dimethylamino)-3-hydroxy-6-methyltetrahydro-2H-pyran-2-yl)oxy)-3-(3-((R)-3-fluoropyrrolidin-1-yl)propyl)-8-methoxy-4,6,8,10,12,12-hexamethyl-1-oxa-4-azacyclotridecane-11,13-dione], the MIC (S. aureus MP-12) was 4 to 32 µg/mL (≈ 6.35 to 50.8 µM), the MIC (P. aeruginosa MP-3) was > 32 µg/mL and the MIC (K. pneumoniae MP-546) was < 4 µg/mL. For the same molecule, the MIC (A. baumannii MP-15) was > 32 µg/mL, the MIC (E. coli MP-4) was < 4 µg/mL and the MIC (K. pneumoniae MP-648) was < 4 µg/mL.

`CO[C@]1(C)C[C@@H](C)CN(C)[C@@H](CCCN2CCC(F)(F)CC2)COC(=O)C(C)(C)C(=O)[C@H](C)[C@H]1O[C@@H]1O[C@H](C)C[C@H](N(C)C)[C@H]1O` [Compound 110, (3S,6R,8R,9R,10R)-3-(3-(4,4-difluoropiperidin-1-yl)propyl)-9-(((2S,3R,4S,6R)-4-(dimethylamino)-3-hydroxy-6-methyltetrahydro-2H-pyran-2-yl)oxy)-8-methoxy-4,6,8,10,12,12-hexamethyl-1-oxa-4-azacyclotridecane-11,13-dione] was tested, and the MIC (S. aureus MP-12) was 4 to 32 µg/mL (≈ 6.04 to 48.3 µM), the MIC (P. aeruginosa MP-3) was > 32 µg/mL and the MIC (K. pneumoniae MP-546) was 4 to 32 µg/mL (≈ 6.04 to 48.3 µM). For the same molecule, the MIC (A. baumannii MP-15) was > 32 µg/mL, the MIC (E. coli MP-4) was < 4 µg/mL and the MIC (K. pneumoniae MP-648) was 4 to 32 µg/mL (≈ 6.04 to 48.3 µM).

`CO[C@]1(C)C[C@@H](C)CN(C)[C@H](C[C@H]2C[C@H](N(C)C)C2)COC(=O)C(C)(C)C(=O)[C@H](C)[C@H]1O[C@@H]1O[C@H](C)C[C@H](N(C)C)[C@H]1O` [Compound 111, (3R,6R,8R,9R,10R)-9-(((2S,3R,4S,6R)-4-(Dimethylamino)-3-hydroxy-6-methyltetrahydro-2H-pyran-2-yl)oxy)-3-(((1r,3S)-3-(dimethylamino)cyclobutyl)methyl)-8-methoxy-4,6,8,10,12,12-hexamethyl-1-oxa-4-azacyclotridecane-11,13-dione] was tested, and the MIC (S. aureus MP-12) was 4 to 32 µg/mL (≈ 6.54 to 52.3 µM), the MIC (P. aeruginosa MP-3) was > 32 µg/mL and the MIC (K. pneumoniae MP-546) was < 4 µg/mL. For the same molecule, the MIC (A. baumannii MP-15) was > 32 µg/mL, the MIC (E. coli MP-4) was < 4 µg/mL and the MIC (K. pneumoniae MP-648) was < 4 µg/mL.

`CO[C@]1(C)C[C@@H](C)CN(C)[C@@H](CCCN2Cc3ccccc3C2)COC(=O)C(C)(C)C(=O)[C@H](C)[C@H]1O[C@@H]1O[C@H](C)C[C@H](N(C)C)[C@H]1O` [Compound 112] was tested, and the MIC (S. aureus MP-12) was < 4 µg/mL, the MIC (P. aeruginosa MP-3) was > 32 µg/mL and the MIC (K. pneumoniae MP-546) was < 4 µg/mL. The MIC (A. baumannii MP-15) was 4 to 32 µg/mL (≈ 6.06 to 48.5 µM), the MIC (E. coli MP-4) was < 4 µg/mL and the MIC (K. pneumoniae MP-648) was < 4 µg/mL.

For `CCN1C[C@H](C)C[C@@](C)(OC)[C@H](O[C@@H]2O[C@H](C)C[C@H](N(C)C)[C@H]2O)[C@@H](C)C(=O)C(C)(C)C(=O)OC[C@H]1CCCN1CCCC1` [Compound 113, (3R,6R,8R,9R,10R)-9-(((2S,3R,4S,6R)-4-(dimethylamino)-3-hydroxy-6-methyltetrahydro-2H-pyran-2-yl)oxy)-4-ethyl-8-methoxy-6,8,10,12,12-pentamethyl-3-(3-(pyrrolidin-1-yl)propyl)-1-oxa-4-azacyclotridecane-11,13-dione], the MIC (S. aureus MP-12) was < 4 µg/mL, the MIC (P. aeruginosa MP-3) was > 32 µg/mL and the MIC (K. pneumoniae MP-546) was < 4 µg/mL. The MIC (A. baumannii MP-15) was > 32 µg/mL, the MIC (E. coli MP-4) was < 4 µg/mL and the MIC (K. pneumoniae MP-648) was < 4 µg/mL.

For `CO[C@]1(C)C[C@@H](C)CN(C)[C@@H](CCCN2CCNC(=O)C2)COC(=O)C(C)(C)C(=O)[C@H](C)[C@H]1O[C@@H]1O[C@H](C)C[C@H](N(C)C)[C@H]1O` [Compound 115, (3S,6R,8R,9R,10R)-9-(((2S,3R,4S,6R)-4-(dimethylamino)-3-hydroxy-6-methyltetrahydro-2H-pyran-2-yl)oxy)-8-methoxy-4,6,8,10,12,12-hexamethyl-3-(3-(3-oxopiperazin-1-yl)propyl)-1-oxa-4-azacyclotridecane-11,13-dione], the MIC (S. aureus MP-12) was > 32 µg/mL, the MIC (P. aeruginosa MP-3) was > 32 µg/mL and the MIC (K. pneumoniae MP-546) was > 32 µg/mL. The MIC (A. baumannii MP-15) was > 32 µg/mL, the MIC (E. coli MP-4) was > 32 µg/mL and the MIC (K. pneumoniae MP-648) was > 32 µg/mL.

In the case of `CO[C@]1(C)C[C@@H](C)CN(C)[C@@H](CCCN2CCC[C@@H]2C)COC(=O)C(C)(C)C(=O)[C@H](C)[C@H]1O[C@@H]1O[C@H](C)C[C@H](N(C)C)[C@H]1O` [Compound 117, (3S,6R,8R,9R,10R)-9-(((2S,3R,4S,6R)-4-(dimethylamino)-3-hydroxy-6-methyltetrahydro-2H-pyran-2-yl)oxy)-8-methoxy-4,6,8,10,12,12-hexamethyl-3-(3-((S)-2-methylpyrrolidin-1-yl)propyl)-1-oxa-4-azacyclotridecane-11,13-dione], the MIC (S. aureus MP-12) was < 4 µg/mL, the MIC (P. aeruginosa MP-3) was > 32 µg/mL and the MIC (K. pneumoniae MP-546) was < 4 µg/mL. The MIC (A. baumannii MP-15) was > 32 µg/mL, the MIC (E. coli MP-4) was < 4 µg/mL and the MIC (K. pneumoniae MP-648) was < 4 µg/mL.
